Experimental data published in ChEMBL document CHEMBL1201862, “PubChem BioAssay data set” (2004).
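Compound exposure: 48 hours, 5 concentrations, 96-well plates. Here, GI50 denotes the concentration required for 50% inhibition of growth.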 Active and inactive are the calls of the source. No stated cut-off is given here; in the data, active = GI50 up to about 1.1 µM and inactive = higher.

Tests used:
Assay in all cases: DTP human tumour cell line panel, 48 h
NCI-H460 = tested on: NCI-H460
A549 = tested on: A549
RPMI-8226 = tested on: RPMI-8226
HCT-15 = tested on: HCT-15
NCI-H522 = tested on: NCI-H522
CAKI-1 = tested on: CAKI-1
NCI-H23 = tested on: NCI-H23
TK-10 = tested on: TK-10
SR = tested on: SR
U-251 = tested on: U-251
OVCAR-3 = tested on: OVCAR-3
M14 = tested on: M14
SF-539 = tested on: SF-539
MOLT-4 = tested on: MOLT-4
HL-60 = tested on: HL-60
SNB-19 = tested on: SNB-19
LOX IMVI = tested on: LOX IMVI

Row | SMILES | GI50 (NCI-H460) | GI50 (A549) | GI50 (RPMI-8226) | GI50 (HCT-15) | GI50 (NCI-H522) | GI50 (CAKI-1) | GI50 (NCI-H23) | GI50 (TK-10) | GI50 (SR) | GI50 (U-251) | GI50 (OVCAR-3) | GI50 (M14) | GI50 (SF-539) | GI50 (MOLT-4) | GI50 (HL-60) | GI50 (SNB-19) | GI50 (LOX IMVI)
1 | Cc1nc2cc3nc4ccccc4c(O)c3cc2s1 | > 100 µM (inactive) | > 100 µM (inactive) | > 100 µM (inactive) | > 100 µM | > 100 µM (inactive) | > 100 µM (inactive) | > 100 µM (inactive) | > 100 µM (inactive) | > 100 µM (inactive) | > 100 µM (inactive) | > 100 µM (inactive) | > 100 µM (inactive) | > 100 µM (inactive) | > 100 µM (inactive) | > 100 µM (inactive) | > 100 µM (inactive) | –
2 | Cc1c2n(c3ccccc13)CC1C2N(C)OC1(C)C (configuration not stated) | > 100 µM (inactive) | > 100 µM (inactive) | > 100 µM (inactive) | > 100 µM | > 100 µM (inactive) | > 100 µM (inactive) | > 100 µM (inactive) | – | > 100 µM (inactive) | > 10 µM (inactive) | > 100 µM (inactive) | > 100 µM (inactive) | > 100 µM (inactive) | > 100 µM (inactive) | – | > 100 µM (inactive) | –
3 | CCOC(=O)C1(c2ccccc2)CCCNCC1 (configuration not stated) | 29 µM (inactive) | > 100 µM (inactive) | 88.1 µM (inactive) | 72.9 µM | 7.91 µM (inactive) | > 100 µM (inactive) | 35.3 µM (inactive) | > 100 µM (inactive) | 33.1 µM (inactive) | > 100 µM (inactive) | 74.6 µM (inactive) | > 100 µM (inactive) | – | 45.9 µM (inactive) | 98.4 µM (inactive) | > 100 µM (inactive) | > 100 µM (inactive)
4 | CCOC(=O)C(=O)Nc1c(C(C)C)cccc1C(C)C | > 100 µM (inactive) | > 100 µM (inactive) | – | > 100 µM | > 100 µM (inactive) | > 100 µM (inactive) | > 100 µM (inactive) | > 100 µM (inactive) | > 100 µM (inactive) | > 100 µM (inactive) | > 100 µM (inactive) | > 100 µM (inactive) | > 100 µM (inactive) | > 100 µM (inactive) | > 100 µM (inactive) | > 100 µM (inactive) | –
5 | CCC1C(=O)OCc2c1cc1n(c2=O)CCC12OCCO2 (configuration not stated) | > 100 µM (inactive) | > 100 µM (inactive) | > 100 µM (inactive) | > 100 µM | > 100 µM (inactive) | > 100 µM (inactive) | > 100 µM (inactive) | > 100 µM (inactive) | > 100 µM (inactive) | > 100 µM (inactive) | – | > 100 µM (inactive) | > 100 µM (inactive) | > 100 µM (inactive) | > 100 µM (inactive) | > 100 µM (inactive) | > 100 µM (inactive)
6 | CC(=O)CCn1ncc(Cl)c(Cl)c1=O | 20.2 µM (inactive) | 23 µM (inactive) | 14.2 µM (inactive) | 6.55 µM | – | 1.91 µM (inactive) | 15 µM (inactive) | 48.6 µM (inactive) | 9.59 µM (inactive) | – | 13.7 µM (inactive) | 15.7 µM (inactive) | 22.2 µM (inactive) | 20.6 µM (inactive) | 8.39 µM (inactive) | 18 µM (inactive) | 15.6 µM (inactive)
7 | Cc1ccc(S(=O)(=O)C2c3nc4ccccc4cc3-c3nc4ccccc4nc32)cc1 (configuration not stated) | > 10 µM (inactive) | > 100 µM (inactive) | > 100 µM (inactive) | > 100 µM | > 100 µM (inactive) | > 100 µM (inactive) | > 100 µM (inactive) | > 100 µM (inactive) | > 100 µM (inactive) | > 100 µM (inactive) | > 100 µM (inactive) | > 100 µM (inactive) | > 100 µM (inactive) | > 100 µM (inactive) | > 100 µM (inactive) | > 100 µM (inactive) | > 100 µM (inactive)
8 | O=[N+]([O-])c1ccc(NSc2ccccc2)cc1 | 18.3 µM (inactive) | 29 µM (inactive) | > 10 µM (inactive) | 19.8 µM | 17.2 µM (inactive) | – | 45.6 µM (inactive) | 44.7 µM (inactive) | 10.7 µM (inactive) | 29.7 µM (inactive) | 34.8 µM (inactive) | 20.5 µM (inactive) | 18.7 µM (inactive) | 10.8 µM (inactive) | 15 µM (inactive) | 70.3 µM (inactive) | 13.1 µM (inactive)
9 | O=S1(=O)CSc2ccc3ccccc3c2-c2c1ccc1ccccc21 | > 100 µM (inactive) | > 100 µM (inactive) | – | – | > 100 µM (inactive) | > 100 µM (inactive) | > 100 µM (inactive) | > 100 µM (inactive) | > 100 µM (inactive) | > 100 µM (inactive) | > 100 µM (inactive) | > 100 µM (inactive) | > 100 µM (inactive) | > 100 µM (inactive) | > 100 µM (inactive) | > 100 µM (inactive) | > 100 µM (inactive)
10 | O=C(O)c1c[nH]c2c(ccc3ncccc32)c1=O | > 100 µM (inactive) | > 100 µM (inactive) | – | > 100 µM | > 100 µM (inactive) | – | > 100 µM (inactive) | > 100 µM (inactive) | > 100 µM (inactive) | > 100 µM (inactive) | > 100 µM (inactive) | > 100 µM (inactive) | > 100 µM (inactive) | > 100 µM (inactive) | > 100 µM (inactive) | > 100 µM (inactive) | > 100 µM (inactive)
11 | CC(=O)OCC1OC(OC2C(CSC3OC(COC(C)=O)C(OC(C)=O)C(OC(C)=O)C3OC(C)=O)OC(OC(C)=O)C(OC(C)=O)C2OC(C)=O)C(OC(C)=O)C(OC(C)=O)C1OC(C)=O (configuration not stated) | > 100 µM (inactive) | > 100 µM (inactive) | > 100 µM (inactive) | > 100 µM | > 100 µM (inactive) | > 100 µM (inactive) | > 100 µM (inactive) | > 100 µM (inactive) | > 100 µM (inactive) | > 100 µM (inactive) | > 100 µM (inactive) | > 100 µM (inactive) | > 100 µM (inactive) | > 100 µM (inactive) | – | > 100 µM (inactive) | > 100 µM (inactive)
12 | O=C(NS(=O)(=O)c1ccccc1)C(Cc1ccccc1)C(Cc1ccccc1)C(=O)NS(=O)(=O)c1ccccc1 (configuration not stated) | > 100 µM (inactive) | > 100 µM (inactive) | > 100 µM (inactive) | – | > 100 µM (inactive) | > 100 µM (inactive) | > 100 µM (inactive) | > 100 µM (inactive) | > 100 µM (inactive) | > 100 µM (inactive) | > 100 µM (inactive) | > 100 µM (inactive) | > 100 µM (inactive) | > 100 µM (inactive) | > 100 µM (inactive) | > 100 µM (inactive) | > 100 µM (inactive)
13 | CN1CCn2c(Br)ccc2C1=O | > 100 µM (inactive) | > 100 µM (inactive) | > 100 µM (inactive) | > 100 µM | > 100 µM (inactive) | > 100 µM (inactive) | > 100 µM (inactive) | > 100 µM (inactive) | > 100 µM (inactive) | > 100 µM (inactive) | > 100 µM (inactive) | > 100 µM (inactive) | > 100 µM (inactive) | > 100 µM (inactive) | > 100 µM (inactive) | > 100 µM (inactive) | > 100 µM (inactive)
14 | [O-][S+]1c2ccccc2N=C(c2ccc3ccccc3c2)CC1c1ccccc1F (configuration not stated) | > 100 µM (inactive) | > 100 µM (inactive) | 58.6 µM (inactive) | > 100 µM | 72.3 µM (inactive) | > 100 µM (inactive) | > 100 µM (inactive) | > 100 µM (inactive) | – | > 100 µM (inactive) | > 100 µM (inactive) | > 100 µM (inactive) | > 100 µM (inactive) | 48.2 µM (inactive) | > 100 µM (inactive) | > 100 µM (inactive) | > 100 µM (inactive)
15 | O=S1(=O)c2ccccc2N(O)C2=NCCN21 | > 100 µM (inactive) | > 100 µM (inactive) | > 100 µM (inactive) | – | > 100 µM (inactive) | > 100 µM (inactive) | > 100 µM (inactive) | > 100 µM (inactive) | > 100 µM (inactive) | > 100 µM (inactive) | > 100 µM (inactive) | > 100 µM (inactive) | > 100 µM (inactive) | > 100 µM (inactive) | > 100 µM (inactive) | > 100 µM (inactive) | > 100 µM (inactive)
16 | CC1OC(OC2C(OC(=O)[C@]34CCC(C)(C)CC3C3=CCC5[C@@]6(C)C[C@H](O)[C@H](OC7OC(COC8OC(CO)C(O)C(O)C8O)C(O)C(O)C7O)[C@@](C)(C(=O)O)C6CC[C@@]5(C)C3(C)CC4)OCC(O)C2O)C(O)C(O)C1OC1OCC(O)C(O)C1O (some centres not stated) | > 100 µM (inactive) | > 100 µM (inactive) | > 100 µM (inactive) | > 100 µM | > 100 µM (inactive) | > 100 µM (inactive) | > 100 µM (inactive) | > 100 µM (inactive) | – | > 100 µM (inactive) | > 100 µM (inactive) | – | > 100 µM (inactive) | > 100 µM (inactive) | > 100 µM (inactive) | > 100 µM (inactive) | > 100 µM (inactive)
17 | COC1C2C=CC(C2)[C@H]1[N+](=O)[O-] (some centres not stated) | > 100 µM (inactive) | > 100 µM (inactive) | – | > 100 µM | > 100 µM (inactive) | > 100 µM (inactive) | > 100 µM (inactive) | > 100 µM (inactive) | > 100 µM (inactive) | > 100 µM (inactive) | > 100 µM (inactive) | > 100 µM (inactive) | > 100 µM (inactive) | > 100 µM (inactive) | 28.8 µM (inactive) | > 100 µM (inactive) | > 100 µM (inactive)
